Measured values reported in US20250108001A1, “TOPICAL OCULAR ADMINISTRATION OF AMBROXOL FOR OCULAR PAIN” (NeuVision Development LLC, priority 2022, published 2025).

How the values were obtained:
cornea = settings: topical 0.1%, humans; cited from earlier work
eyes of rats = test: Corneal sensation by Cochet-Bonnet esthesiometer after one topical drop in rats; settings: rat eye; for minimum total corneal sensation preserved: at maximal effect (5-15 minutes), tactile sensation
rat NOP models = test: Rat eye-wipe assay, Epi-off ocular pain model, 2M NaCl challenge; format: in vivo
From the text: With minor modification of established rat NOP models, ocular pain was created by removing corneal epithelium (Epi-off) under general anesthesia. 2M NaCl saline (in contrast to 5M NaCl used in previous studies) was used to trigger peripheral neuronal excitement in response to hyperosmolarity while minimizing the potential inherent irritancy to the cornea from 5M NaCl. Then, one hour was given to each rat to allow complete recovery from anesthesia before proceeding to subsequent study steps. […] Due to its short duration of action, a proparacaine group was not included in this study (FIG. 2). The rat eye-wipe assay is an established animal behavioral and neurophysiological tool for the assessment of corneal sensitivity to noxious stimuli (Price T J, et al., Br. J. Pharmacol.). Increased corneal sensitivity was shown in male rats following lacrimal gland excision which correlates with eye wiping behaviors in response to hypertonic saline (5M NaCl) (Meng I D, et al., Invest. Ophthalmol. Vis. Sci. 2015).

Nav1.7 nociceptor = Nav1.7 nociceptor (Homo sapiens, UniProt Q15858); settings: versus lidocaine; cited from earlier work
Nav1.8 nociceptor = Nav1.8 nociceptor (Homo sapiens, UniProt Q9Y5Y9); settings: versus lidocaine; cited from earlier work
[1] = 0.3% and 0.5% ambroxol HCl solutions
[2] = single drop 0.5% ambroxol, Epi-off rats, 2M NaCl

Nav1.8 nociceptor, sequence (Q9Y5Y9 whole entry): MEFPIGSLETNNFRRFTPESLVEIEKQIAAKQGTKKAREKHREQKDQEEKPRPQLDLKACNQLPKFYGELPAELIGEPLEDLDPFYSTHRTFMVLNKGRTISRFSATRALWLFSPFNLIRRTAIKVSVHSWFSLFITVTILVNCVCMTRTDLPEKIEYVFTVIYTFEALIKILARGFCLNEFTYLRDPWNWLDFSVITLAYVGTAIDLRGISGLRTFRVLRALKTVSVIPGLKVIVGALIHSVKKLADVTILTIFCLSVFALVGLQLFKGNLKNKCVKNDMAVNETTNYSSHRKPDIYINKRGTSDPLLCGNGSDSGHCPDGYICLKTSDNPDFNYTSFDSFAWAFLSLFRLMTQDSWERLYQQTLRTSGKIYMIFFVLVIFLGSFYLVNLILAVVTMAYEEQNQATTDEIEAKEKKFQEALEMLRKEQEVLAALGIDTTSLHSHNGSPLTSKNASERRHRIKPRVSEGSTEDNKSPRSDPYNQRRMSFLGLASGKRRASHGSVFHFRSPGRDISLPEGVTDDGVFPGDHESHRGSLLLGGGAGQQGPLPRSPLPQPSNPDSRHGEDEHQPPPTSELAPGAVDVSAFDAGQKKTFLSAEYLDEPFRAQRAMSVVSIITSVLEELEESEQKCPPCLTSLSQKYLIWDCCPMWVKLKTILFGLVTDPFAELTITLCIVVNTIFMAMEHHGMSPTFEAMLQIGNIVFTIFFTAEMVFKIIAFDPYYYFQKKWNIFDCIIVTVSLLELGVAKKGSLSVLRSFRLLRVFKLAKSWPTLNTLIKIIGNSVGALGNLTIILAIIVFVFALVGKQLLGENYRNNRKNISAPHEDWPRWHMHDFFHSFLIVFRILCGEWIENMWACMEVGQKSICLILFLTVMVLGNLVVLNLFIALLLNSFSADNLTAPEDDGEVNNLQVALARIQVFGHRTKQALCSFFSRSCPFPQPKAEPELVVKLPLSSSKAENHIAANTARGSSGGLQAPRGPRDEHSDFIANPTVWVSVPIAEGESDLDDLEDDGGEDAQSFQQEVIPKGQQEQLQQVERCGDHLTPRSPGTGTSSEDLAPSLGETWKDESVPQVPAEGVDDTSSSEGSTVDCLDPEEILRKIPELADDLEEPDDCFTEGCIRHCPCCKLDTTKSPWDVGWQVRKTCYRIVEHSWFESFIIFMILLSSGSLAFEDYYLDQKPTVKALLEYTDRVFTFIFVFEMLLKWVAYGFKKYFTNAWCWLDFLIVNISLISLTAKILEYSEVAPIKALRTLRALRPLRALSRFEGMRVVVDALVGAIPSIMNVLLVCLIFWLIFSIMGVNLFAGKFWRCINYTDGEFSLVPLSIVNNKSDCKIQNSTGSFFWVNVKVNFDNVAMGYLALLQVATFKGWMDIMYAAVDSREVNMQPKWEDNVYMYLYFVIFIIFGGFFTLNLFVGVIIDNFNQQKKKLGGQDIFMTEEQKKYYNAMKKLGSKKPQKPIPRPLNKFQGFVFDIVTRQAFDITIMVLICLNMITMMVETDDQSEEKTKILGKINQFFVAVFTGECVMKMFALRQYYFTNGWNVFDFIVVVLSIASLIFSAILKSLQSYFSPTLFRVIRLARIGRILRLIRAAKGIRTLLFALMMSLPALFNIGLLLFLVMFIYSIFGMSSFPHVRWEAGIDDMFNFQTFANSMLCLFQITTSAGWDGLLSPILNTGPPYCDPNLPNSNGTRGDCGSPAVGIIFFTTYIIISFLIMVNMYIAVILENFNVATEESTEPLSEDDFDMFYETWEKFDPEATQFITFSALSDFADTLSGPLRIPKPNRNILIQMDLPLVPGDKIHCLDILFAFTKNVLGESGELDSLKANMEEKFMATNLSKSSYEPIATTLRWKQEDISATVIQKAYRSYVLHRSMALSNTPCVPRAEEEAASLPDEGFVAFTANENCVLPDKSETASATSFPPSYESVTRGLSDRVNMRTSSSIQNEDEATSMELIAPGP
Nav1.7 nociceptor, sequence (Q15858 whole entry): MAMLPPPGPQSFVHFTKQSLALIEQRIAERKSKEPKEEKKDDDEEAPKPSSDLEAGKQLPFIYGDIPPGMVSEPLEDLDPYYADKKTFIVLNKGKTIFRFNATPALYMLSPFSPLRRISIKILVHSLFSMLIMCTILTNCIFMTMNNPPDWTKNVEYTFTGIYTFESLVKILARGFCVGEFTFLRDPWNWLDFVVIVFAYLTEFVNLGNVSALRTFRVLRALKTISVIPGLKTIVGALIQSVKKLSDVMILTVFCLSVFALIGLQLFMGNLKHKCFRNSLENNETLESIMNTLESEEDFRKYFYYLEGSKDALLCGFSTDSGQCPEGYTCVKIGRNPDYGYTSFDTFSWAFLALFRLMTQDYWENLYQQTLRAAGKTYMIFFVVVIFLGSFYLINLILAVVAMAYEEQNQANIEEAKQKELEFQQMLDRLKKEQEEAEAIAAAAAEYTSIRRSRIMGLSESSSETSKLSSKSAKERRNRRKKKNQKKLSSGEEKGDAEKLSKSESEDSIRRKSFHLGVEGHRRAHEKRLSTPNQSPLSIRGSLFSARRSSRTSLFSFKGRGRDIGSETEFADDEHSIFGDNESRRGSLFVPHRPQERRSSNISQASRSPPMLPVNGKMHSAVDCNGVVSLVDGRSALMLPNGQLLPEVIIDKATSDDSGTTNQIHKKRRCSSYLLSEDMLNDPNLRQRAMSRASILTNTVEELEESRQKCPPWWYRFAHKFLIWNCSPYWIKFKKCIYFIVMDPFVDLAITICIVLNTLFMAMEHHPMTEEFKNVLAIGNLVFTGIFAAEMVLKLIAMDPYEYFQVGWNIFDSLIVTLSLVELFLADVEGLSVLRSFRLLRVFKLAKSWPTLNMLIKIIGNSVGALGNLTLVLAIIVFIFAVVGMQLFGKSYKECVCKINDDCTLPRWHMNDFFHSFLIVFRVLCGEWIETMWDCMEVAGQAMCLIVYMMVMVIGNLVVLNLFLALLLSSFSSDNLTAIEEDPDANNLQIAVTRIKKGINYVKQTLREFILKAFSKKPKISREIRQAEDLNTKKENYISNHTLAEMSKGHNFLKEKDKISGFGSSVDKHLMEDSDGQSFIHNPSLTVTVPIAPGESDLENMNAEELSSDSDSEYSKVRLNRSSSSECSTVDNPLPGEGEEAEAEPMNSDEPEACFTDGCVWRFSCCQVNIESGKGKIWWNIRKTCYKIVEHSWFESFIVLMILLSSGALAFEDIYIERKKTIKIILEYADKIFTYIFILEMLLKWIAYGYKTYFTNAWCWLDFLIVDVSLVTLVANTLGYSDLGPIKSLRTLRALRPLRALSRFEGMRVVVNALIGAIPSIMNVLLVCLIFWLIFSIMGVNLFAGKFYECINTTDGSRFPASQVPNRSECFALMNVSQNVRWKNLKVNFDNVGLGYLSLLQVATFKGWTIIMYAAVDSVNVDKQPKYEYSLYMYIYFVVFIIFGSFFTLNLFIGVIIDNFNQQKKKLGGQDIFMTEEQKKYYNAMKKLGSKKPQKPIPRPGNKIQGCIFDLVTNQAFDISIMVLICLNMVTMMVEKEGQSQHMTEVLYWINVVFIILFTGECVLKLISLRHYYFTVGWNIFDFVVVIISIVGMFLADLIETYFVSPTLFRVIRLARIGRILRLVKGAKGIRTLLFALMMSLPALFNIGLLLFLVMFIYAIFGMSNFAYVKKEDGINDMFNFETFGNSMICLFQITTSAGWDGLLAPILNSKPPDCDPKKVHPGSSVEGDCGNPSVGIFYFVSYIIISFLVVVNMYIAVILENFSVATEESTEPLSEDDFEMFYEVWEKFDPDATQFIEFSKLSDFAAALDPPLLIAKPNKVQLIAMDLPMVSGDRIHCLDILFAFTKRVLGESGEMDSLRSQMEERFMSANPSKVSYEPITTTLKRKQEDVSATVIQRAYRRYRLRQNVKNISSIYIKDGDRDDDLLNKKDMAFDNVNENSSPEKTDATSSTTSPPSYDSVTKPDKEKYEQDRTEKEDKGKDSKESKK

O=C(O)Cc1ccccc1Nc1c(Cl)cccc1Cl [diclofenac]
cornea anesthetic effect (cornea): does not have clinically significant cornea anesthetic effect

Nc1c(Br)cc(Br)cc1CN[C@H]1CC[C@H](O)CC1 [ambroxol, trans-4-(2-Amino-3,5-dibrombenzylamino)-cyclohexanol]
minimum total corneal sensation preserved (eyes of rats; 0.3% ambroxol HCl solution): ≥ 15% | duration of drug action on corneal sensation (eyes of rats; [1]): about 4 hours | time of maximal effect on corneal sensation (eyes of rats; [1]): 5 to 15 min | minimum total corneal sensation preserved (eyes of rats; 0.5% ambroxol HCl solution): ≥ 15% | time of maximal effect in eye-wipe assay (rat NOP models; 0.5% ambroxol-containing formulation, after administration): up to 30 min | duration of reduction in eye wiping count/min (rat NOP models; [2]): at least 4 hours | sensitivity to hyperosmolarity at the ocular surface (rat NOP models; [2]): obviously preserved | eye wiping count/min in response to 2M NaCl (rat NOP models; single drop 0.5% ambroxol, Epi-off rats, versus carrier buffer control): significant reduction | binding affinity for the Nav1.7 nociceptor relative to lidocaine (Nav1.7 nociceptor): same level | potency in binding the Nav1.8 nociceptor relative to lidocaine (Nav1.8 nociceptor): 40 times | potency of Nav1.8 block relative to lidocaine (Nav1.8 nociceptor): approximately 40 times

CCCOc1ccc(C(=O)OCCN(CC)CC)cc1N [proparacaine]
corneal sensor network block (FIG. 1) (eyes of rats; 0.5% proparacaine): completely blocked | change in eye wiping counts before (Epi-on) and after surgery (Epi-off) (rat NOP models; 0.5% proparacaine HCl, at its maximal effect (5 min), data not shown): no significant change
